Laboratory results: US10302644B2, “Compositions and methods for treating multiple myeloma” (Dana-Farber Cancer Institute, Inc., priority 2014, dated 2019)

Assays:
p53 [1] = assay: Immunoblotting of p53 and phosphorylated p53 in MM cells; format: cell-based
Procedure: (§1) MM cells were harvested and lysed using RIPA-lysis buffer (Boston Bioproducts, Ashland, Mass.) containing 5 mM EDTA, 5 mM NaF, 2 mM Na3VO4, 1 mM PMSF, 5 μg/ml leupeptin, and 5 μg/ml aprotinin. Nuclear proteins were extracted using “Nuclear Extraction Kit” (Affimetrix). After the determination of protein concentration using DC protein assay (Bio-Rad, Hercules, Calif.), β-mercaptoethanol (-ME) was added to the whole-cell lysates to a 2% final concentration. The whole cell lysates or nuclear extracts were subjected to SDS-PAGE, transferred to nitrocellulose membranes (Bio-Rad, Hercules, Calif.) or polyvinylidene fluoride membranes (Millipore, Billerica, Mass.), and immunoblotted with indicated Abs. Silver staining was carried out using “SilverQuest Staining Kit®” (Invitrogen), according to manufacturer's protocol.

[2] = tested on: LC3-II, Bim, PARP, MDM2, XIAP, cIAP, p-p70S6K; assay: Immunoblotting/qPCR of autophagy and apoptosis proteins in MM cells; format: cell-based; conditions: MM.1S cells
Procedure: as §1
(§2) RNA was extracted using Trizol (Invitrogen) and quantified by a Nanodrop spectrophotometer (Labtech). Specifically, 5×10^6 cells were pelleted, washed with cold PBS, and resuspended in 1 mL Trizol. They were then incubated with 1-Bromo-3-chloropropane (Sigma), washed first with Isopropyl alcohol and then with 75% Ethanol, and resuspended in Nuclease Free-water (Invitrogen). After quantification, 2000 ng of RNA was used to synthesize cDNA via the Superscript II First strand synthesis Kit (Invitrogen), according to the manufacturer's instructions. To evaluate the expression levels of TP53RK, BCL2L11, MYC, Bim, E2F1, TP53, IKZF1, IKZF3, RRM1, p18CDKN2C, PSMB5, PSMB7, PSMA3 and GAPDH, quantitative real time PCR (QRT-PCR) was performed using SYBR GREEN PCR Master Mix (Applied Biosystem), after optimization of the primer conditions. cDNAs were diluted 1:100 or 1:1000 and amplified in a 20 μL reaction. Primers were used at 200 nM or 400 nM concentration. Thermal cycling conditions were: 10 minutes at 95° C., 40 cycles at 95° C. for 15 seconds, followed by 1 minute at 60° C. Real-time quantitative PCR was performed on ABI Prism 7300 Sequence Detection System (Applied Biosystems). Data were analyzed using the delta delta Ct method. GAPDH was used as an invariant control.

TP53RK, CRBN = assay: TP53RK and CRBN expression in MM cells (immunoblotting, qPCR); format: cell-based; conditions: MM.1S cells, 48 h
Procedure: as §1, §2
pLKO.1-based shRNA vectors were obtained from the RNAi Consortium (Broad Institute). […] After 24 h of infection, cells expressing shRNA were selected with puromycin dihydrochloride (Sigma-Aldrich) at 1-2 μg/ml for 48 h, and then examined for proliferation and/or subjected to immunoblotting analysis. For siRNA transfection, scrambled, TP53RK, CRBN, p53, c-Myc and RRM1 siRNAs were purchased from Thermo Scientific (Lafayette, Colo.). siRNA transfection was carried out by Amaxa electroporation system using “Cell Line Nucleofector® Kit V or C” solution (Lonza, Koln, Germany).

MM cells = assay: Growth inhibition assay (MTT) / viable cell count (Trypan-blue); format: cell-based
Procedure: Cell growth was assessed by measuring 3-(4,5-dimethylthiazol-2-yl)-2,5-diphenyl […] bromide (MTT, Chemicon International, Temecula, Calif.) dye absorbance. Cells were pulsed with 10 μl of 5 mg/ml MTT to each well for the last 4 h of 48 h and/or 72 h cultures, followed by 100 μl isopropanol containing 0.04N HCl. Absorbance was measured at 570/630 nm using a spectrophotometer (Molecular Devices Corp., Sunnyvale Calif.).

p53 [3] = assay: p53 DNA binding activity assay; format: cell-based; conditions: MM.1S and H929 cells, 48 h
Procedure: E2F1 DNA binding activity was assessed by electrophoretic mobility shift assay (EMSA) using “EMSA Gel Shift Kit®” from Affimetrix (Santa Clara, Calif.), and p53 DNA binding activity was performed using “p53 Transcription Factor Assay Kit®” from Cayman Chemical (Ann Arbor, Mich.). Experiments were carried out according to manufacturer's protocols.

TP53RK = target: T1, TP53RK (Homo sapiens, UniProt Q96S44); assay: In vitro TP53RK auto-phosphorylation assay; format: biochemical; conditions: dose-dependent; recombinant TP53RK and TPRKB
T1 construct: made in house; host or cells: HEK-293FT (transient calcium phosphate transfection; anti-DDK beads, Superdex 200)
Excerpt: Full-length TP53RK and TPRKB sequences obtained from OriGene (Rockville, Md.) were cloned and inserted into pCMV6-AC-Myc-DDK. These constructs were transiently transfected into HEK-293FT cells to overexpress recombinant C-terminal Myc-DDK tagged TP53RK and TPRKB by calcium phosphate transfection. The recombinant proteins were immunoprecipitated with anti-DDK agarose beads and subjected to gel chromatography using Superdex 200 sizing column with an HPLC system. TP53RK and TPRKB proteins were co-eluted in the same fraction, whereas the TPRKB single protein was eluted in later fractions.
In vitro TP53RK auto-phosphorylation assay was performed as previously described^2. Briefly, purified recombinant TP53RK and TPRKB proteins (1.5-3 μg/reaction) were incubated with 25 uM [γ-32P]ATP (3000 Ci/mmol, 10 mCi/mL, PerkinElmer, Boston, Mass.) in HEPES buffer (25 mM HEPES (pH 7.5), 100 mM NaCl, 25 mM MgCl2. 2 mM DTT, phosphatase inhibitor mix (Roche) for 30 min at 30° C. The reaction was terminated by adding SDS sample buffer, and reaction mixtures were subjected to SDS-PAGE and autoradiography, as well as Coomassie blue staining.

Chk1, ATM, ATR, Chk2 = assay: Immunoblotting of DNA damage kinase phosphorylation; format: cell-based; conditions: MM.1S cells, 48 h
Procedure: as §1

E2F1 = E2F1 DNA binding activity (EMSA), protein and mRNA; format: cell-based; conditions: MM cells
Procedure: (§3) MM cells were harvested and lysed using RIPA-lysis buffer (Boston Bioproducts, Ashland, Mass.) containing 5 mM EDTA, 5 mM NaF, 2 mM Na3VO4, 1 mM PMSF, 5 μg/ml leupeptin, and 5 μg/ml aprotinin. Nuclear proteins were extracted using “Nuclear Extraction Kit” (Affimetrix). After the determination of protein concentration using DC protein assay (Bio-Rad, Hercules, Calif.), β-mercaptoethanol (-ME) was added to the whole-cell lysates to a 2% final concentration. […]
(§4) RNA was extracted using Trizol (Invitrogen) and quantified by a Nanodrop spectrophotometer (Labtech). […] After quantification, 2000 ng of RNA was used to synthesize cDNA via the Superscript II First strand synthesis Kit (Invitrogen), according to the manufacturer's instructions. To evaluate the expression levels of TP53RK, BCL2L11, MYC, Bim, E2F1, TP53, IKZF1, IKZF3, RRM1, p18CDKN2C, PSMB5, PSMB7, PSMA3 and GAPDH, quantitative real time PCR (QRT-PCR) was performed using SYBR GREEN PCR Master Mix (Applied Biosystem), after optimization of the primer conditions. cDNAs were diluted 1:100 or 1:1000 and amplified in a 20 μL reaction. […] Real-time quantitative PCR was performed on ABI Prism 7300 Sequence Detection System (Applied Biosystems). Data were analyzed using the delta delta Ct method. […]

c-Myc, IKZF1/3 = assay: c-Myc and IKZF1/3 expression (immunoblotting, qPCR); format: cell-based; conditions: MM.1S cells
Procedure: as §3, §4

RRM1, p18CDKN2C = assay: RRM1 and p18CDKN2C expression (RT-qPCR, Western blot); format: cell-based; conditions: H929 cells
Procedure: as §1, §2

proteasome = assay: Proteasome pathway (GSEA, qPCR) and chymotrypsin-like proteasome activity assay; format: cell-based; conditions: H929 cells
Procedure: as §2
Expression data for plasma cells from healthy donors, monoclonal gammopathy of undetermined significance (MGUS), and smoldering myeloma (SMM) were derived from GSE5900 dataset, while expression data from normal plasma cells and 65 MM patients were obtained from GSE4452 dataset, using expression profiling on Affymetrix GeneChip (t test, unpaired, equal variance). […] Data were then normalized and analyzed using D-chip software, seeking statistically significant differences among groups or in p53-target gene expression. Statistical significance was determined by Student t test. The minimal level of significance was P<0.05. […] Gene set enrichment analysis (GSEA) was performed as previously described (2) (GSEA v2.0 at http://www.broad.mit.edu/gsea) using gene set as permutation type, as well as 1,000 permutations and signal to noise as metrics for ranking genes.
Proteasome activity was measured by using Proteasome-Glo™ chymotrypsin-like cell-based assay (Promega, Madison, Wis.) according to manufacturer's protocol.

hTERT = hTERT expression and telomerase activity (TeloTAGGG Telomerase PCR ELISA); format: cell-based; conditions: MM.1S cells and H929 cells
Procedure: as §1
Telomerase activity in MM.1S and H929 cells was assessed by “TeloTAGGG Telomerase PCR ELISA®” from Roche Applied Science (Mannheim, Germany).

T1 sequence (Q96S44 whole entry, other chains not shown): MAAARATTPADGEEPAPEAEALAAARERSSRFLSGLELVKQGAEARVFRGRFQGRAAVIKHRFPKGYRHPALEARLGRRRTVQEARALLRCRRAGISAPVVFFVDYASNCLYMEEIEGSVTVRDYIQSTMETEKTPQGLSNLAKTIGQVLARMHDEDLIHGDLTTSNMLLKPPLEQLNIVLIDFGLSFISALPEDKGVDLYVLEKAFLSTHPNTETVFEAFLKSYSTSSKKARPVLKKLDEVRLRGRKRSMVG

COc1ccc(C2=N[C@@H](c3ccc(Cl)cc3)[C@@H](c3ccc(Cl)cc3)N2C(=O)N2CCNC(=O)C2)c(OC(C)C)c1 [Nut3, Nutlin-3a]
p-p53 and p53 levels (p53 [1]; MM.1S cells, Nutlin-3a 0.5 μM, 48 h): upregulated | IMiD-triggered PARP cleavage in presence of Nut3 [2]: enhanced | MDM2 and XIAP expression [2]: upregulated | LC3-II upregulation triggered by Len and Pom, in presence of Nut3 ([2]; Nutlin-3a 0.5 μM, 48 h): markedly downregulated

O=C1CCC(N2C(=O)c3ccccc3C2=O)C(=O)N1 (centres unmarked) [Thal, Thalidomide]
downstream p-p53 level (p53 [1]; MM.1S cells, 48 h): not | TP53RK level (TP53RK, CRBN): not

CC(C)C[C@H](NC(=O)[C@H](Cc1ccccc1)NC(=O)c1cnccn1)B(O)O [bortezomib]
cytotoxicity induced by bortezomib after TP53RK knockdown (MM cells; H929 cells, TP53RK siRNA then BTZ 3 nM 24 h, MTT): further enhanced

Nc1cccc2c1C(=O)N(C1CCC(=O)NC1=O)C2=O (centres unmarked) [Pom, pomalidomide]
drug-triggered growth inhibition in kinase-dead D163A TP53RK transfectants (MM cells; H929 cells, 48 h): abrogated | Pom-induced MM cell growth inhibition after TP53RK knockdown (MM cells; H929 cells, TP53RK siRNA then Pom 48 h, p<0.02): enhanced | sensitivity of MM cell lines to drug (MM cells; MM.1S and H929 cells with wt-p53 versus cell lines with mutant p53): more sensitive | drug-triggered cell death after CRBN knock-down (MM cells; OPM2 cells (mutant p53) and H929 cells (wt-p53)): only partially abrogates | anti-MM activity (MM cells; among the IMiDs Thal, Len, Pom): most potent anti-MM activity | potency of p-p53/p53 downregulation, Pom versus Len (p53 [1]; MM.1S cells): more potently | p53 phosphorylation at Ser20 and Ser37 (p53 [1]; MM.1S cells, 2.5 μM, 48 h): no change | phosphorylated (p-Ser15)-p53 and p53 levels (p53 [1]; MM.1S cells, 2.5 μM, 48 h): downregulated | downstream p-p53 level (p53 [1]; MM.1S cells, 48 h): markedly reduced | Nut3-induced upregulation of p-p53 and p53 (p53 [1]; MM.1S cells, Len or Pom 2.5 μM with Nutlin-3a 0.5 μM, 48 h): inhibited | p-p53/p53 downregulation (p53 [1]; nuclear extracts from MM.1S and H929 cell lines, patient MM cells): further confirmed | p53 activity (p53 DNA binding) (p53 [3]): block | in vitro auto-phosphorylation of TP53RK (TP53RK): markedly downregulated | phosphorylation of ATM, ATR or Chk2 (Chk1, ATM, ATR, Chk2): not | phosphorylation of Chk1 (Chk1, ATM, ATR, Chk2): inhibited | LC3-II level ([2]; 2.5 μM, 48 h): upregulation | E2F1 (E2F1): increases | c-Myc transcription (real-time qPCR) (c-Myc, IKZF1/3): decreased transcription | RRM1 expression (RRM1, p18CDKN2C): downregulate | p18CDKN2C expression (RRM1, p18CDKN2C): upregulate | chymotrypsin-like proteasome activity (proteasome): downregulation | proteasome pathway (GSEA) (proteasome): downregulation | hTERT expression (hTERT): significantly inhibited | telomerase (hTERT) activity (hTERT): significantly inhibited | TP53RK level (TP53RK, CRBN): induced downregulation
